The values below are quoted from earlier work in patent US20180042936A1, “MAINTENANCE THERAPY USING TIANEPTINE” (GENOMIND, Inc., priority 2016, published 2018).

The conditions of data set [1]: some individuals with treatment-resistant major depressive disorder and bipolar disorder.
Data set [2] relates to brain derived neurotrophic factor (BDNF). The following applies: responders compared to non-responders.

Read-outs that look alike come from different tables or passages of the source. Bounds are passed on as bounds.

`CNC1(c2ccccc2Cl)CCCCC1=O` (racemic) [Ketamine, (RS)-2-(2-Chlorophenyl)-2-(methylamino)cyclohexanone]: in data set [1], the “time to anti-depression efficacy” value is at most 1 h. For the same compound, the “plasma BDNF levels” value in data set [2] (240 min post-infusion (Haile et al. 2014)) is “significantly increased”; in data set [2] (post-infusion of ketamine (Example 1)) it was “increases plasma BDNF levels”.
